This is an account of results in ChEMBL document CHEMBL5543142, “Discovery of YFJ-36: Design, Synthesis, and Antibacterial Activities of Catechol-Conjugated β-Lactams against Gram-Negative Bacteria” (J Med Chem, 2024).

Data set [1] can be described thus: Clearance in ICR mouse at 20 mg/kg,iv administration measured upto 6 hrs by LC-MS/MS analysis. Format: ADME, organism-based. To be noted: in vivo.
Data set [2] can be described thus: Volume of distribution at steady state in ICR mouse at 20 mg/kg,iv administration measured upto 6 hrs by LC-MS/MS analysis. To be noted: in vivo, read-out: Vdss. Format: ADME, organism-based.
Data set [3] in a line: Half life in ICR mouse at 20 mg/kg,iv administration measured upto 6 hrs by LC-MS/MS analysis. Format: ADME, organism-based. The following applies: in vivo.
A short description of data set [4]: MRT in ICR mouse at 20 mg/kg,iv administration measured upto 6 hrs by LC-MS/MS analysis. Format: ADME, organism-based. The following applies: in vivo.
Data set [5] can be described thus: AUC (0 to infinity) in ICR mouse at 20 mg/kg,iv administration measured upto 6 hrs by LC-MS/MS analysis. Format: ADME, organism-based. The following applies: in vivo.
The subject of data set [6] is Acinetobacter baumannii. Briefly: Antibacterial activity against OXA-23 producing multidrug-resistant Acinetobacter baumannii clinical isolate 17-2 assessed as inhibition of bacterial growth incubated for 18 to 20 hrs by two fold serial dilution assay. To be noted: time 18-20 hrs. Format: functional.
Data set [7] relates to Klebsiella pneumoniae. Briefly: Antibacterial activity against KPC-2 producing multidrug-resistant Klebsiella pneumoniae clinical isolate 15-2 assessed as inhibition of bacterial growth incubated for 18 to 20 hrs by two fold serial dilution assay. Format: functional. The following applies: time 18-20 hrs.
In data set [8] the test system is Escherichia coli. Briefly: Antibacterial activity against ESBL-producing multidrug-resistant Escherichia coli clinical isolate 14-4 assessed as inhibition of bacterial growth incubated for 18 to 20 hrs by two fold serial dilution assay. Format: functional. To be noted: time 18-20 hrs.
The subject of data set [9] is Pseudomonas aeruginosa. Briefly: Antibacterial activity against IMP-4 producing multidrug-resistant Pseudomonas aeruginosa clinical isolate 19-17 assessed as inhibition of bacterial growth incubated for 18 to 20 hrs by two fold serial dilution assay. Format: functional. The following applies: time 18-20 hrs.
Data set [10] has as its system Pseudomonas aeruginosa. Nature of the data set: Antibacterial activity against IMP-4 producing multidrug-resistant Pseudomonas aeruginosa clinical isolate 17-13 assessed as inhibition of bacterial growth incubated for 18 to 20 hrs by two fold serial dilution assay. To be noted: time 18-20 hrs. Format: functional.
In data set [11] the test system is Klebsiella pneumoniae. Briefly: Antibacterial activity against KPC-2 producing multidrug-resistant Klebsiella pneumoniae clinical isolate 15-5 assessed as inhibition of bacterial growth incubated for 18 to 20 hrs by two fold serial dilution assay. Format: functional. To be noted: time 18-20 hrs.
Data set [12] deals with Escherichia coli. Nature of the data set: Antibacterial activity against ESBL-producing multidrug-resistant Escherichia coli clinical isolate 14-2 assessed as inhibition of bacterial growth incubated for 18 to 20 hrs by two fold serial dilution assay. Format: functional. To be noted: time 18-20 hrs.
In data set [13] the test system is Klebsiella pneumoniae. Briefly: Antibacterial activity against KPC-2 producing multidrug-resistant Klebsiella pneumoniae clinical isolate 15-1 assessed as inhibition of bacterial growth incubated for 18 to 20 hrs by two fold serial dilution assay. Format: functional. To be noted: time 18-20 hrs.
Data set [14] has as its system Escherichia coli. Briefly: Antibacterial activity against ESBL-producing multidrug-resistant Escherichia coli clinical isolate 14-1 assessed as inhibition of bacterial growth incubated for 18 to 20 hrs by two fold serial dilution assay. Format: functional. To be noted: time 18-20 hrs.
Data set [15] has as its system Pseudomonas aeruginosa. Nature of the data set: Antibacterial activity against IMP-4 producing multidrug-resistant Pseudomonas aeruginosa clinical isolate 19-5 assessed as inhibition of bacterial growth incubated for 18 to 20 hrs by two fold serial dilution assay. Format: functional. The following applies: time 18-20 hrs.
Data set [16] deals with Pseudomonas aeruginosa. Nature of the data set: Antibacterial activity against IMP-4 producing multidrug-resistant Pseudomonas aeruginosa clinical isolate 19-1 assessed as inhibition of bacterial growth incubated for 18 to 20 hrs by two fold serial dilution assay. Format: functional. The following applies: time 18-20 hrs.
For data set [17], the system named is Escherichia coli. Briefly: Antibacterial activity against Escherichia coli ATCC35218 assessed as inhibition of bacterial growth incubated for 18 to 20 hrs by two fold serial dilution assay. The following applies: time 18-20 hrs. Format: functional.
Data set [18] has as its system Klebsiella pneumoniae. Nature of the data set: Antibacterial activity against KPC-2 producing multidrug-resistant Klebsiella pneumoniae clinical isolate 15-3 assessed as inhibition of bacterial growth incubated for 18 to 20 hrs by two fold serial dilution assay. Format: functional. The following applies: time 18-20 hrs.
In data set [19] the test system is Acinetobacter baumannii. Briefly: Antibacterial activity against OXA-23 producing multidrug-resistant Acinetobacter baumannii clinical isolate 17-3 assessed as inhibition of bacterial growth incubated for 18 to 20 hrs by two fold serial dilution assay. Format: functional. To be noted: time 18-20 hrs.
The test system of data set [20] is Acinetobacter baumannii. Nature of the data set: Antibacterial activity against OXA-23 producing multidrug-resistant Acinetobacter baumannii clinical isolate 15-2 assessed as inhibition of bacterial growth incubated for 18 to 20 hrs by two fold serial dilution assay. The following applies: time 18-20 hrs. Format: functional.
In data set [21] the test system is Acinetobacter baumannii. Briefly: Antibacterial activity against OXA-23 producing multidrug-resistant Acinetobacter baumannii clinical isolate 15-4 assessed as inhibition of bacterial growth incubated for 18 to 20 hrs by two fold serial dilution assay. To be noted: time 18-20 hrs. Format: functional.
For data set [22], the system named is Acinetobacter baumannii. Nature of the data set: Antibacterial activity against OXA-23 producing multidrug-resistant Acinetobacter baumannii clinical isolate 15-3 assessed as inhibition of bacterial growth incubated for 18 to 20 hrs by two fold serial dilution assay. Format: functional. To be noted: time 18-20 hrs.
Data set [23] has as its system Acinetobacter baumannii. Briefly: Antibacterial activity against OXA-23 producing multidrug-resistant Acinetobacter baumannii clinical isolate 15-5 assessed as inhibition of bacterial growth incubated for 18 to 20 hrs by two fold serial dilution assay. Format: functional. To be noted: time 18-20 hrs.
The subject of data set [24] is Acinetobacter baumannii. Briefly: Antibacterial activity against OXA-23 producing multidrug-resistant Acinetobacter baumannii clinical isolate 15-1 assessed as inhibition of bacterial growth incubated for 18 to 20 hrs by two fold serial dilution assay. Format: functional. To be noted: time 18-20 hrs.

SMILES strings stand for the structures.

As a reminder, the clearance is the rate of elimination divided by the concentration. A lower clearance goes with a low capacity for elimination. The half-life is the time needed for the level to fall by half in the phase considered. The MRT is a mean duration of stay, worked out from the concentration-time curve. As a reminder, the AUC(0-inf) is the area under the concentration-time curve extrapolated to infinity. In data set [1], `CC(C)(O/N=C(\C(=O)N[C@@H]1C(=O)N2C(C(=O)[O-])=C(C[N+]3(CCNC(=O)c4ccc(O)c(O)c4Cl)CCCC3)CS[C@H]12)c1csc(N)n1)C(=O)O.O=C(O)C(F)(F)F` displayed a clearance of 25.2 mL/min/kg. Further, the Vd in data set [2] was determined as 0.663 L/kg. Further, the half-life in data set [3] is 33 min. In [4], this molecule displayed an MRT of 26.4 min. This molecule also gave an AUC(0-inf) in data set [5] of 11600 ng·h/mL.

Usually MIC stands for the smallest concentration in the dilution series that meets the test's criterion for growth inhibition. Take `Nc1nc(/C(=N/OC(C(=O)O)C2CCC(F)(F)CC2)C(=O)N[C@@H]2C(=O)N3C(C(=O)O)=C(CSCCNC(=O)c4ccc(O)c(O)c4Cl)CS[C@H]23)ns1.O=C(O)C(F)(F)F` (some centres not stated): the MIC in the data set with Acinetobacter baumannii [6] is 0.25 µg/mL; with Klebsiella pneumoniae [7] it was 32 µg/mL; with Escherichia coli [8] it was 1 µg/mL; in the data set with Pseudomonas aeruginosa [9] it was 1 µg/mL; in the data set on Pseudomonas aeruginosa [10], 0.5 µg/mL; in the data set with Klebsiella pneumoniae [11], 16 µg/mL. Further, the MIC in the data set with Escherichia coli [12] was 4 µg/mL; with Klebsiella pneumoniae [13], 16 µg/mL; in the data set with Escherichia coli [14] it was 1 µg/mL; in the data set on Pseudomonas aeruginosa [15], 4 µg/mL; in the data set on Pseudomonas aeruginosa [16], 8 µg/mL; in the data set on Escherichia coli [17], 0.25 µg/mL. The minimum inhibitory concentration (MIC) is 16 µg/mL in the data set with Klebsiella pneumoniae [18] and 0.25 µg/mL with Acinetobacter baumannii [19].

For `Nc1nc(/C(=N/OC(C(=O)O)C2CCCCC2)C(=O)N[C@@H]2C(=O)N3C(C(=O)O)=C(CSCCNC(=O)c4ccc(O)c(O)c4Cl)CS[C@H]23)c(Br)s1.O=C(O)C(F)(F)F` (some centres not stated), the MIC came to 1 µg/mL with Acinetobacter baumannii [6]; 1 µg/mL with Acinetobacter baumannii [20]; 2 µg/mL with Acinetobacter baumannii [21]; 2 µg/mL with Klebsiella pneumoniae [7]; 0.25 µg/mL in the data set with Escherichia coli [8]; 0.5 µg/mL in the data set on Pseudomonas aeruginosa [9]. In addition, the MIC in the data set on Pseudomonas aeruginosa [10] worked out at 0.25 µg/mL; in the data set with Acinetobacter baumannii [22], 2 µg/mL; in the data set on Klebsiella pneumoniae [11], 1 µg/mL; in the data set with Acinetobacter baumannii [23] it was 1 µg/mL; in the data set on Acinetobacter baumannii [24], 2 µg/mL; with Escherichia coli [12], 0.5 µg/mL. Also, the MIC in the data set with Klebsiella pneumoniae [13] worked out at 2 µg/mL; in the data set on Escherichia coli [14], 1 µg/mL; in the data set on Pseudomonas aeruginosa [15], 1 µg/mL; in the data set with Pseudomonas aeruginosa [16], 4 µg/mL; in the data set on Escherichia coli [17], 0.06 µg/mL; with Klebsiella pneumoniae [18], 8 µg/mL. Further, the MIC with Acinetobacter baumannii [19] was 1 µg/mL.

Molecule `Cl.Nc1nc(/C(=N/OC(C(=O)O)C2CCC(F)(F)CC2)C(=O)N[C@@H]2C(=O)N3C(C(=O)O)=C(CSCCNC(=O)c4ccc(O)c(O)c4Cl)CS[C@H]23)cs1` (some centres not stated) had a clearance in data set [1] of 54 mL/min/kg. Further, the Vd in data set [2] is 0.997 L/kg. The molecule also showed a half-life in [3] of 46.8 min. Further, the mean residence time (MRT) in [4] turned out to be 18.6 min. In addition, in data set [5], the AUC(0-inf) was determined as 6340 ng·h/mL.

As for `Nc1nc(/C(=N/OC(C(=O)O)C2CCC(F)(F)CC2)C(=O)N[C@@H]2C(=O)N3C(C(=O)O)=C(CSCCNC(=O)c4ccc(O)c(O)c4Cl)CS[C@H]23)c(Br)s1.O=C(O)C(F)(F)F` (some centres not stated), the MIC came out at 0.125 µg/mL in the data set on Acinetobacter baumannii [6]; 0.5 µg/mL in the data set on Acinetobacter baumannii [20]; 4 µg/mL in the data set on Acinetobacter baumannii [21]; 1 µg/mL with Klebsiella pneumoniae [7]; 0.06 µg/mL in the data set on Escherichia coli [8]; 0.125 µg/mL with Pseudomonas aeruginosa [9]. Besides, the MIC with Pseudomonas aeruginosa [10] was 0.06 µg/mL; in the data set with Acinetobacter baumannii [22], 1 µg/mL; with Klebsiella pneumoniae [11], 0.25 µg/mL; with Acinetobacter baumannii [23], 4 µg/mL; in the data set on Acinetobacter baumannii [24], 2 µg/mL; with Escherichia coli [12], 0.125 µg/mL. The MIC in the data set with Klebsiella pneumoniae [13] came to 0.5 µg/mL; in the data set with Escherichia coli [14], 0.125 µg/mL; in the data set on Pseudomonas aeruginosa [15] it was 0.25 µg/mL; in the data set with Pseudomonas aeruginosa [16], 8 µg/mL; in the data set with Escherichia coli [17] it was 0.06 µg/mL; in the data set on Klebsiella pneumoniae [18] it was 0.5 µg/mL. Also, in the data set with Acinetobacter baumannii [19], the MIC is 4 µg/mL. The same molecule returned a clearance in data set [1] of 92.9 mL/min/kg. Also, the Vd in data set [2] amounted to 9.48 L/kg. Also, in [3], the half-life is 200 min. Further, the mean residence time (MRT) in data set [4] was 96.6 min. The molecule further displayed an AUC(0-inf) in [5] of 3910 ng·h/mL.
